Values joined by “and” are separate entries in the source; they are usually repeats but may differ in a detail not shown here. Identical values can stand only once. Like-named read-outs stand apart in the source and are kept apart here.
Key:
[1] = system: Plasmodium falciparum W2 strain (CQ-resistant); test: In vitro antiplasmodial activity, SYBR test; assay type: cell-based; conditions: for SI (selectivity index): ratio between cytotoxic (WI-26-VA4) and antiplasmodial (W2) activities
Method: Continuous culture was maintained as previously described. In vitro antiplasmodial activity of the seven compounds against the P. falciparum culture was evaluated using the SYBR test as previously described. Compounds were diluted to concentrations ranging from 10 to 0.0001 μM. […] The plate was read in a fluorometer (Fluoroskan Ascent, Thermo Laboratories) with excitation at 485 nm and an emission of […]. All experiments were performed in triplicate. The results were expressed as the mean of minimum lethal dose for 50% of the culture (IC50).
Selectivity index (SI) is the ratio between the cytotoxic and antiplasmodial activities of each compound tested. The values greater than 10 were considered indicative of lack of cytoxicity, whereas the substances with values below 10 were considered toxic.

[2] = system: human pulmonary fibroblast cells WI-26VA4; test: In vitro cytotoxicity on mammalian cells, MTT assay; assay type: cell-based; conditions: read-out: WI-26-VA4 IC50 ± SD
Method: In vitro cytotoxicity of the compounds was assessed against human pulmonary fibroblast cells WI-26VA4 (ATCC CCL-95.1, USA), by 3-(4,5-dimethyl-2-thiazolyl)-2, 5-diphenyl-2H-tetrazolium bromide (MTT assay). Cells were cultured in a RPMI-1640 medium supplemented with 10% heat-inactivated fetal bovine serum in a 96-well plate. Compounds were diluted in different concentrations ranging from 100 to 1 μM and incubated with the cells for 48 h in a 5% CO2 atmosphere at 37 °C. The optical density was determined at 540 nm […] (Spectra Max340PC384, Molecular Devices, Sunnyvale, CA, USA). The minimum lethal dose for 50% of the cells (IC50) was determined as previously described.

Plasmodium berghei ANKA [3] = test: Curative test in the mouse model of experimental cerebral malaria; assay type: in vivo, C57BL/6 mice infected with P. berghei ANKA; conditions: for % Reduction of parasitemia, 5th dpi / Parasitemia ± SD, 5th dpi / % Reduction of parasitemia, 7th dpi / Parasitemia ± SD, 7th dpi: 10 mg/Kg oral, day 3 to 7 p.i.
Plasmodium berghei ANKA [4] = test: Suppressive modified test in the mouse model of experimental cerebral malaria; assay type: in vivo, C57BL/6 mice infected with P. berghei ANKA; conditions: for % Reduction of parasitemia, 5th dpi / Parasitemia ± SD, 5th dpi / % Reduction of parasitemia, 7th dpi / Parasitemia ± SD, 7th dpi: suppressive test, 10 mg/Kg oral for five days from 4 h after infection
Method: The animals (n = 5/cage) were housed in ALESCO® climate-controlled cabinets with controlled air flow, a temperature of 22 ± 2 °C and light control, respecting the animals’ circadian rhythm (light/dark cycle of 12 h), with standard rodent food and water ad libitum.
To carry out the proposed experiments, the murine model of ECM was used to assess the antimalarial activity of the compounds. Plasmodium berghei ANKA was kindly provided by Claudio Romero Marinho (Federal University of São Paulo-Brazil), and was used to conduct the infections which were performed by intraperitoneal (i.p.) injection of 10^5 parasitized red blood cells (pRBCs) obtained from infected donor mice, as previously described. Reduced responsiveness to external stimuli, ataxia, paralysis, coma, and/or convulsions were considered clinical signals of ECM [44].
In the suppressive modified test, mice were treated daily by oral gavage for five consecutive days, starting four hours after infection.
Parasitemia was monitored using giemsa-stained blood smears and the inhibition of parasite multiplication (IPM) was calculated by the formula: [(A–B)/A] × 100, where A = parasitemia of the PbA, and B = parasitemia of the group treated with the compounds. The clinical symptoms were evaluated using the rapid murine coma and behavior scale (RMCBS) from day 5 p.i. being maintained until the end of experimentation. The RMCBS consists of 10 parameters (gait, balance, motor performance, body position, limb strength, touch escape, pinna reflex, toe pinch, aggression, and grooming). Each parameter is scored 0 to 2, with 0 being the lowest function and 2 being the highest. Animals with clinical score ≤ 5 were euthanized. The survival rate (SR) was calculated based on the number of alive animals after 14 days of clinical evaluation. […]

[5] = system: peritoneal macrophages of BALB/c mice; test: Cytotoxicity on peritoneal macrophages, MTT method; assay type: cell-based; conditions: 18 to 150 μM, 48 h
Method: Macrophages obtained from the peritoneal cavity of BALB/c mice previously inoculated with 3% thioglycollate medium for the evaluation of cell viability were used. The macrophages were seeded in culture bottles with a RPMI-1640 medium supplemented with 2 mM L-glutamine, 100 µg/mL antibiotics (streptomycin and penicillin), 5% fetal bovine serum (FBS) and kept in an incubator at 5% CO2 atmosphere at 37 °C until the day of the test. The protocol was approved by the Ethical Committee for Animal Research of Federal University of Juiz de Fora (n° 007/2018-CEUA).
Cytotoxicity was assessed by cell viability using the MTT method. Briefly, the macrophages at 2 × 10^6 cells/well were transferred to 96-well microplates and treated with compound 10 at concentrations of 18 to 150 μM. For the negative control, cells were treated only with 0.06% DMSO (vehicle). The cells were incubated for 48 h at 37 °C and 5% CO2 atmosphere. Absorbance was read at 570 nm and cell viability (%) of macrophages was obtained by the following formula: % viable cells = [(AUSample)/AU0.06% DMSO] × 100, where: AUSample: Absorbance was measured after treatment of cells with the sample; AU0.06% DMSO: Absorbance was measured after treatment of cells with 0.06% DMSO. The experiment was performed in triplicate.

[6] = system: NO production in murine peritoneal macrophages; test: NO production by LPS/IFN-γ stimulated macrophages, Griess method; assay type: cell-based, BALB/c mice; conditions: macrophages stimulated with LPS and IFN-γ, 18 to 150 μM, 48 h, p < 0.05
Method: NO production was determined in the culture supernatants of macrophages after being incubated for 48 h in the presence of compound 10 ([…]) and stimulated with LPS at 1 μg/mL and IFN-γ at 1 ng/mL. Negative control was stimulated with LPS and IFN-γ and treated with 0.06% DMSO (vehicle). The cells were incubated for 48 h at 37 °C and 5% CO2 atmosphere. Subsequently, NO production was evaluated by the Griess method (an indirect NO measurement by nitrite dosing) in the recovered culture supernatant from the 48 h stimuli and treatment as described by. The quantity of NO (μM) was determined by comparison with a standard sodium nitrite solution. The spectrophotometric measurement was performed at 540 nm and the experiment was performed in triplicate.

[7] = Plasmodium falciparum, W2 strain (chloroquine-resistant), SYBR test, triplicate, read-out: P. falciparum IC50 ± SD
[8] = WI26VA4, human fibroblasts, MTT, 48 h, highest concentration 100 μM
[9] = suppressive treatment regimen, 10 mg/kg oral

Molecule | IC50 [1, 7] [nM] | SI (selectivity index) [1] | IC50 [2, 8] [nM] | % Reduction of parasitemia, 5th dpi (Plasmodium berghei ANKA [3]) [%] | Parasitemia ± SD, 5th dpi (Plasmodium berghei ANKA [3]) | % Reduction of parasitemia, 7th dpi (Plasmodium berghei ANKA [3]) [%] | Parasitemia ± SD, 7th dpi (Plasmodium berghei ANKA [3]) | Parasitemia ± SD, 5th dpi (Plasmodium berghei ANKA [4]) | % Reduction of parasitemia, 7th dpi (Plasmodium berghei ANKA [4]) [%] | Parasitemia ± SD, 7th dpi (Plasmodium berghei ANKA [4]) | Prevention of the development of CM (share of animals) (Plasmodium berghei ANKA [3]; 10 mg/kg oral) | other results
COC(=O)[C@@H]1Cc2c([nH]c3ccccc23)[C@H](c2ccccc2OC)N1 [Compound 3, Methyl (1S,3S)-1-(2-Methoxy)-2,3,4,9-tetrahydro-1H-pyrido[3,4-b]indole-3-carboxylate] | 710 ± 12 | >141 | > 100000 | 41.19 | 1.87 ± 1.02 | 0 | 7.50 ± 2.49 | 3.56 ± 2.57 | 0 | 7.96 ± 3.26 |  | % Reduction of parasitemia, 5th dpi (Plasmodium berghei ANKA [4]): 0.00%; Inhibition of parasite growth (in words) (Plasmodium berghei ANKA [4]; [9]): not effective
artemisinin [reference compound] |  |  |  |  |  |  |  |  |  |  |  | IC50 ([1]; W2 strain (chloroquine-resistant), SYBR test, triplicate, read-out: P. falciparum IC50 ± SD): 95 ± 10 nM; IC50 ([2]; human fibroblasts, MTT, 48 h, highest concentration 100 μM): > 100000 nM
CCN(CC)CCCC(C)Nc1ccnc2cc(Cl)ccc12 (stereo not drawn) [CQ, chloroquine, reference compound] |  |  |  |  |  | 96.1 | 0.21 ± 0.27 | 0.24 ± 0.05 | 96.1 | 0.21 ± 0.27 |  | IC50 ([1]; Plasmodium falciparum, W2, read-out: P. falciparum IC50 ± SD): 590 ± 15 nM; IC50 ([2]; Homo sapiens, WI26VA4, 48 h): > 100000 nM; % Reduction of parasitemia, 5th dpi (Plasmodium berghei ANKA [4]): 96.5%
COc1cc(C2NCCc3c2[nH]c2ccccc32)cc(OC)c1OC (stereo not drawn) [Compound 9, 1-(3,4,5-Trimethoxyphenyl)-2,3,4,9-tetrahydro-1H-pyrido[3,4-b]indole] | 1120 ± 14 | >89 | > 100000 |  |  |  |  |  |  |  |  | 
CCN(CC)c1ccc(C2NCCc3c2[nH]c2ccccc32)c(O)c1 (stereo not drawn) [Compound 8, 5-(Diethylamino)-2-(2,3,4,9-tetrahydro-1H-pyrido[3,4-b]indol-1-yl)phenol] | 1820 ± 11 | >55 | > 100000 |  |  |  |  |  |  |  |  | 
COC(=O)[C@@H]1Cc2c([nH]c3ccccc23)[C@@H](c2ccccc2OC)N1 [Compound 4, Methyl (1R,3S)-1-(2-Methoxy)-2,3,4,9-tetrahydro-1H-pyrido[3,4-b]indole-3-carboxylate] | 1040 ± 21 | >96 | > 100000 | 75.16 | 0.79 ± 0.63 | 20.00 | 5.48± 3.64 | 1.88 ± 2.46 | 9.78 | 6.18 ± 4.75 |  | Animals alive until the 14th dpi (without CM) (Plasmodium berghei ANKA [3]; 10 mg/kg oral): 90%; % Reduction of parasitemia, 5th dpi (Plasmodium berghei ANKA [4]; 10 mg/kg): 40% and 40.88%; Protection against CM (share of animals) (Plasmodium berghei ANKA [4]; [9]): 60%
COC(=O)[C@@H]1Cc2c([nH]c3ccccc23)[C@H](c2ccccc2Cl)N1 [Compound 5, Methyl (1S,3S)-1-(2-Chloro)-2,3,4,9-tetrahydro-1H-pyrido[3,4-b]indole-3-carboxylate] | 1410 ± 18 | >71 | > 100000 | 0.00 | 5.00 ± 1.59 | 0 | 7.20 ± 4.57 |  |  |  | No protective effect | 
COc1cc(-c2nccc3c2[nH]c2ccccc23)cc(OC)c1OC [Compound 10, 1-(3,4,5-Trimethoxyphenyl)-9H-pyrido[3,4-b]indole] | 510 ± 11 | >196 | > 100000 |  | 1.02 ± 0.93 | 0 | 8.37 ± 2.26 | 0.57 ± 0.94 | 45.69 | 3.72 ± 3.93 | 70% | % Reduction of parasitemia, 5th dpi (Plasmodium berghei ANKA [3]; 10 mg/kg): 67.9% and 67.92%; % Reduction of parasitemia, 5th dpi (Plasmodium berghei ANKA [4]; 10 mg/kg): 82% and 82.07%; Toxicity for peritoneal macrophages (cell viability, MTT) [5]: no toxicity; NO levels (nitrite equivalent) [6]: reduce NO levels at all concentrations tested
COC(=O)[C@@H]1Cc2c([nH]c3ccccc23)[C@@H](c2ccccc2Cl)N1 [Compound 6, Methyl (1R,3S)-1-(2-Chloro)-2,3,4,9-tetrahydro-1H-pyrido[3,4-b]indole-3-carboxylate] | 670 ± 19 | >149 | > 100000 | 64.36 | 1.13 ± 0.48 |  |  |  |  |  | No protective effect | 
